Source: article PMC7379272, “Functional analysis of UGT201D3 associated with abamectin resistance in Tetranychus cinnabarinus (Boisduval)” (Insect Science, 2018)

Molecular target: T1, (UniProt A0A221C6W1)
T1 construct: gene UGT201D3; recombinant pET-28a-UGT201D3q, 15 N-terminal hydrophobic amino acids removed, expressed in E. coli BL21 (DE3), Ni-NTA purified
Assay: inhibition of α-naphthol glycosylation by the purified recombinant enzyme, Dixon plot (IC50 […]); HPLC depletion of abamectin
Type: biochemical, Tetranychus cinnabarinus

T1 sequence (A0A221C6W1 16-460 limits assumed): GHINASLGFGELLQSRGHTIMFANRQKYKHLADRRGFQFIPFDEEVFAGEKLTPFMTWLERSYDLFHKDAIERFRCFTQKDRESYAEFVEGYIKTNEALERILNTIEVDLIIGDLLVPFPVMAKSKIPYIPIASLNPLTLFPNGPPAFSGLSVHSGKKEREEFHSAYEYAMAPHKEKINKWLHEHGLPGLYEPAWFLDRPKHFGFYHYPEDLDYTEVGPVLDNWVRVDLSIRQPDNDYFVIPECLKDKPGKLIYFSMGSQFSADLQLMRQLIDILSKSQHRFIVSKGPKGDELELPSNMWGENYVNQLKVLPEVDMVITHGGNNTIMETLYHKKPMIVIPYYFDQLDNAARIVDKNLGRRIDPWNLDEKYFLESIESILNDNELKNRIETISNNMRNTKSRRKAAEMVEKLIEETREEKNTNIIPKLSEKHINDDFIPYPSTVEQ

## CC[C@H](C)[C@H]1O[C@]2(C=C[C@@H]1C)C[C@@H]1C[C@@H](C/C=C(\C)[C@@H](O[C@H]3C[C@H](OC)[C@@H](O[C@H]4C[C@H](OC)[C@@H](O)[C@H](C)O4)[C@H](C)O3)[C@@H](C)/C=C/C=C3\CO[C@@H]4[C@H](O)C(C)=C[C@@H](C(=O)O1)[C@]34O)O2.CO[C@H]1C[C@H](O[C@H]2[C@H](C)O[C@@H](O[C@@H]3/C(C)=C/C[C@@H]4C[C@@H](C[C@]5(C=C[C@H](C)[C@@H](C(C)C)O5)O4)OC(=O)[C@@H]4C=C(C)[C@@H](O)[C@H]5OC/C(=C\C=C\[C@@H]3C)[C@]54O)C[C@@H]2OC)O[C@@H](C)[C@@H]1O [abamectin]
  Ki: 9.9 ± 6.2 µM
